According to patent US9776992B2, “1-oxo-1,2-dihydroisoquinolin-7-yl-(5-substituted-thiophen-2-yl)-sulfonamide compounds, formulations containing those compounds, and their use as AICARFT inhibitors in the treatment of cancers” (Eli Lilly and Company, priority 2014, dated 2017):

Columns and labels:
AICARFT = experiment: Pharmacodynamic response in beagle dogs (plasma AICAr); format: in vivo, beagle dog; conditions: for Mean Plasma AICAr: beagle dogs, orally, time of collection post dose 8; for in vivo inhibition of AICARFT (in words): dogs, summary of Table 20
Protocol: The in vivo effects of AICARFT inhibition on the circulating concentration of AICAr is determined by liquid chromatography-mass spectrometry (LC-MS). Standard curves containing AICAr at concentrations of 1 ng/mL-2000 ng/mL are prepared in 40 mM ammonium acetate, pH 4. Plasma samples (75 μL) or standards (75 μL) are combined with 300 μL of an internal standard solution containing 13C5-AICAr (20 ng/mL) and formic acid (1%) in ACN. The samples are vortex mixed for 5 minutes and passed through a Phenomenex Phree 96-well phospholipid removal SPE plate. The eluents are collected in a 96-well plate and dried under heated nitrogen at 50° C. Each sample is reconstituted in 50 μL of 40 mM ammonium acetate, pH 4. The plates are sealed and vortexed for 5 minutes prior to analysis. The LC-MS method utilized a Shimadzu Prominence 20A HPLC system connected to an AB Sciex 5500™ or an AB Sciex 6500™ triple quadrupole mass spectrometer running Analyst® software. Extracted samples are separated using two Thermo Hypercarb™ Javelin guard columns (2.1×20 mm, 5 μm) connected in series with an injection volume of 15 μL and a flow rate of 1 mL/minute. Mobile phase A is a 95:5 mixture of 50 mM ammonium formate, pH 4 and ACN. Mobile phase B is a 70:30 mixture of ACN and MeOH spiked with 0.3% formic acid and 2% concentrated ammonium hydroxide solution (v/v). For mouse plasma samples the following gradient is used: 0 minutes, 0% B; 0.25 minutes, 0% B; 2.00 minutes, 25% B; 2.01 minutes, 95% B; 3.50 minutes, 95% B; 3.51 minutes, 0% B; 4.50 minutes, stop. For dog plasma samples the following gradient is used to remove endogenous interferences: 0 minutes, 0% B; 0.25 minutes, 0% B; 5.99 minutes, 20% B; 6.00 minutes, 95% B; 8.00 minutes, 95% B; 8.01 minutes, 0% B; 10.00 minutes, stop. The mass spectrometer is operated in positive ion TurboIonSpray® multiple reaction monitoring mode with a source temperature of 700° C. The precursor and fragment ions for each analyte are: AICAr (259→127) and 13C5-AICAr (264→127). Calibration curves are constructed by plotting analyte concentrations vs. analyte/internal standard peak area ratios and performing a linear fit of the data using a 1/concentration weighting with AB Sciex MultiQuant™ 2.1 software.
Beagle dogs, non-human primates and human are low serum folate species, whereas rodents are high serum folate (C P Leamon et al. (2008) JPET 327:918-925). The pharmacodynamics response in dogs treated with an AICARFT inhibitor will be more representative of the expected pharmacodynamics response in patients treated with an AICARFT inhibitor.
Animals are returned to the colony for re-use after completion of the experiment.

panel of cell lines = experiment: In vitro proliferation assay, cell line panel (CellTiter-Glo); format: cell-based; conditions: standard media conditions; summary of Table 17
Protocol: (§1) Cells are grown using the cell banks recommended culture conditions on the date of sample acquisition. Prepare complete medium adding appropriate horse serum (ex. Invitrogen, Cat. No. 16050130) or FBS (ex. Invitrogen, Cat. No. 10099-141 or Hyclone Cat. No. CH30160.03) and additives.
(§2) For attached cell lines, remove and discard culture medium using a vacuum pump. […] Add 3.0 mL of Trypsin-EDTA solution to flask and observe cells under an inverted microscope until cell layer is dispersed. Add 8.0 mL of complete growth medium and aspirate cells by gently pipetting.
(§3) For suspension cell lines, transfer the cell suspension to a centrifuge tube and centrifuge at 800-1000 rpm for 3-5 minutes. Discard the supernatant using a vacuum pump. Add the appropriate volume of complete medium. Suspend the cell pellet by gently pipetting. Count the cell numbers and adjust cells to the appropriate seeding density. […]
(§4) Determine the concentrations to be tested and dilute the compounds to 200×final concentration in low folate media. […] Incubate plates at 37° C. for approximately 2 doubling times as determined for each cell line. […] Paste the clear bottom with white back seal and record luminescence with Flexstation3 (Molecular Devices). The settings should be: Luminescence, integration time 500 ms. […]

[1] = test system: large cell lung cancer NCI-H460; experiment: In vitro proliferation assay, NCI-H460; format: cell-based; conditions: Homo sapiens; NCI-H460, standard media conditions
Protocol: as §1, §2, §3, §4

[2] = test system: colorectal carcinoma HCT-116; experiment: In vitro proliferation assay, HCT-116; format: cell-based; conditions: Homo sapiens; HCT-116, standard media conditions
Protocol: as §1, §2, §3, §4

| Compound | Mean Plasma AICAr (AICARFT; 10 mg/kg QD) | Mean Plasma AICAr (AICARFT; 30 mg/kg QD) | Mean Plasma AICAr (AICARFT; 100 mg/kg QD) | Mean Plasma AICAr (AICARFT; 300 mg/kg QD) | in vivo inhibition of AICARFT (in words) (AICARFT) | inhibition of proliferation of cancer cells (in words) (panel of cell lines) | IC50 [1] | IC50 [2] |
| --- | --- | --- | --- | --- | --- | --- | --- | --- |
| O=c1[nH]ccc2cc(F)c(NS(=O)(=O)c3ccc(N4C[C@@H](O)[C@@H](F)C4)s3)cc12 (single isomer, unassigned) [Example 33] | 98 nM | 213 nM | 726 nM | 1150 nM | demonstrate in vivo inhibition of AICARFT | – | – | – |
| O=c1[nH]ccc2cc(F)c(NS(=O)(=O)c3ccc(N4CC[C@@H](O)C4)s3)cc12 [Example 1, N-(6-Fluoro-1-oxo-1,2-dihydroisoquinolin-7-yl)-5-[(3R)-3-hydroxypyrrolidin-1-yl]thiophene-2-sulfonamide] | 138 nM | 254 nM | 652 nM | 931 nM | demonstrate in vivo inhibition of AICARFT | inhibit proliferation of cancer cells | 0.61 µM | 8.1 µM |
| O=c1[nH]ccc2cc(F)c(NS(=O)(=O)c3ccc(N4C[C@@H](O)C(F)(F)C4)s3)cc12 [Example 41, 5-[(4R)-3,3-difluoro-4-hydroxypyrrolidin-1-yl]-N-(6-fluoro-1-oxo-1,2-dihydroisoquinolin-7-yl)thiophene-2-sulfonamide] | 158 nM | 362 nM | 1534 nM | 1373 nM | demonstrate in vivo inhibition of AICARFT | inhibit proliferation of cancer cells | 1.88 µM | 10.8 µM |
